According to US20100135992A1, “Prolongation of Survival of an Allograft by Inhibiting Complement Activity” (Alexion Pharmaceuticals, Inc., priority 2006, published 2010):

Columns and labels:
[1] = tested on: C3H heart allografts in presensitized BALB/c recipients; assay: Immunoperoxidase staining of heart allografts in presensitized mouse recipients at necropsy; format: in vivo; set-up: key: 0, negative; 1+, equivocal; 2+, weak; 3+, moderate; 4+, intense; conditions: heart allograft, POD 3
From the text: Immunohistochemistry Four micrometer sections were cut from tissue samples embedded in Tissue-Tek O.C.T gel (Optimum Cutting Temperature, Skura Finetek, Torrance, Calif.) mounted on gelatin-coated glass microscope slides and stained by a standard indirect avidin-biotin immunoperoxidase staining method using an Elite Vcctastain ABC kit (Vector Laboratories Inc., Burlingame, Calif.). Specimens were stained for CD4^+ and CD8^+ cells with biotin-conjugated rat anti-mouse CD4 mAb (clone YTS 191.1.2, Cedarlane Laboratories Ltd., Hornby, Ontario, Canada) and biotin-conjugated rat anti-mouse CD8 mAb (clone 53-6.7, Pharmingen, Franklin Lakes, N.J.), respectively. Intragraft monocyte/macrophage infiltration was detected by staining with biotin-conjugated rat anti-mouse Mac-1 mAb (Cedarlane Laboratories Ltd., Hornby, Ontario, Canada). Mouse IgG and IgM deposition in gratis was detected using biotin-conjugated goat anti-mouse-IgG and goat anti-mouse-IgM (Cedarlane). For identification of complement deposition, sections were serially incubated with goat anti-C3 or anti-C5 polyclonal Abs (Quidel, San Diego, Calif.), biotinylated rabbit anti-goat IgG (Vector Laboratories), and HRP-conjugated-streptavidin (Zymed Laboratories, South San Francisco, Calif.). Slides were washed with phosphate-buffered saline between steps, and examined under light microscopy. Negative controls were performed by omitting the primary antibodies. The immunostaining was scored in five high-power fields of each section, and five independent experiments were performed. The sections of immunoperoxidase staining were graded from 0 to 4+ according to the staining intensity: 0, negative; 1+, equivocal; 2+, weak staining; 3+, moderate staining; and 4+, very intensive staining.

[2] = tested on: C3H heart allografts in presensitized BALB/c mice; assay: Histological changes of heart allografts at necropsy (Example 4); format: in vivo, mouse; conditions: endpoint, score 0 normal to 4 marked change
From the text: This model is designed to mimic presensitized transplantation in humans, especially in relation to accelerated humoral rejection. Recipient mice were split into eight groups of six to eight mice each. The treatments were as follow.

[3] = tested on: C3H kidney allografts in presensitized BALB/c recipients; conditions: kidney allograft model development
From the text: Animals Male adult C3H (H-2^k) mice and BALB/c (H-2^d mice (Jackson Labs, Bar Harbor, Me.) weighing 25-30 g were chosen as donors and recipients, respectively. Animals were housed under conventional conditions at the Animal Care Facility, The University of Western Ontario, and were cared for in accordance with the guidelines established by the Canadian Council on Animal Care.
Skin Presensitization Full-thickness skin grafts taken from C3H donors were cut into 1×1 cm^2 pieces and transplanted onto the backs of BALB/c recipient mice. Rejection was defined as complete necrosis of the skin grafts.
The donor ureter was also sutured to the recipient bladder using 10-0 sutures. The native kidneys were removed immediately after grafting. Graft rejection leading to host death was used as the endpoint of rejection for kidney transplants.
Measurement of Serum Creatinine Serum samples were obtained at study endpoint (time of rejection or POD100) after kidney transplantation. Serum creatinine levels were quantitated in 10 μL samples using the Sigma Diagnostics (Sigma, St. Louis, Mo.) procedure, which measures creatinine by a kinetic modification of the Jaffe reaction (Junge et al., 2004). Graft Histology At necropsy, tissue samples were processed for hematoxylin and eosin (H&E) staining (Wang et al, JI 2003) and evaluated for vasculitis, thrombosis, hemorrhage and lymphocyte infiltration; changes were scored as: 0, none; 1, minimal; 2, mild; 3, moderate or 4, marked compared to normal tissues.

[4] = tested on: C3H heart allografts in presensitized BALB/c recipients; assay: C3H heart allograft survival and histology in skin-presensitized BALB/c recipients (Examples 1-2); format: in vivo, mouse; conditions: FIG. 2A
From the text: Rejection was defined as complete necrosis of the skin grafts.
Specimens were then embedded in paraffin, and sectioned for H&E staining. The microscopic sections were examined in a blinded fashion for severity of rejection by a pathologist. Criteria for graft rejection included the presence of vasculitis, thrombosis, hemorrhage and lymphocyte infiltration. These changes were scored as: 0, no change; 1, minimum change; 2, mild change; 3, moderate change; or 4, marked change.

[5] = tested on: circulating anti-donor IgG and IgM antibodies; assay: Flow cytometry of circulating anti-donor antibodies (heart model); format: in vivo, mouse; conditions: POD3, presensitized heart recipients, FIG. 4A
Experimental: Flow Cytometry The circulating anti-donor specific IgG and IgM antibodies were evaluated in the recipient serum by FACScan flow cytometry (Becton Dickinson, Mountain View, Calif.). Glotz et al., (1993); Tyan et al. (1994). Briefly, C3H mouse splenocytes were isolated and incubated at 37° C. for 30 minutes with serum from naive control and experimental groups. To stain for total IgG, IgG1, IgG2a, IgG2b and IgM, the cells were washed and incubated with FITC-conjugated goat antibody specific for the Fc portion of mouse IgG or with phycoerythrin-conjugated goat antibody specific for the μ-chain of mouse IgM (Jackson ImmunoResearch Laboratories, West Grove, Pa.), or with FITC-conjugated goat anti-mouse IgG1 (CALTAG Laboratories, Burlingame, Calif.), or with FITC-conjugated goat anti-mouse IgG2a (CALTAG), or with FITC-conjugated goat anti-mouse IgG2b (CALTAG). After 1 hour of staining at 4° C., the cells were washed with PBS, resuspended at 5×10^6/mL, and analyzed by flow cytometry for mean channel fluorescence intensity, which represents the antibody-binding reactivity.

O=P1(N(CCCl)CCCl)NCCCO1 (stereo not drawn) [CyP, cyclophosphamide]
C3 immunoperoxidase staining grade [1]: 3+
C5 immunoperoxidase staining grade [1]: 3+
CD4 immunoperoxidase staining grade [1]: 1+
CD8 immunoperoxidase staining grade [1]: 1+
IgG immunoperoxidase staining grade [1]: 3+
IgM immunoperoxidase staining grade [1]: 1+
Mac-1 immunoperoxidase staining grade [1]: 3+
Hemo (hemorrhage) median score [2]: 2.0
Infar (infarction) median score [2]: 4.0
Lymph (lymphocyte infiltration) median score [2]: 0.0
Throm (thrombosis) median score [2]: 3.0
Vasc (vasculitis) median score [2]: 2.0
nephrotoxicity [3]: significant nephrotoxicity
heart graft survival (time to rejection) [4]: 3.3 ± 0.5 days
circulating anti-donor IgG levels [5]: partially down-regulated
